Reference: patent publication EP3685668B1, “COMPOSITION COMPRISING ACIBENZOLAR-S-METHYL AS EFFECTIVE INGREDIENT FOR CONTROLLING BURSAPHELENCHUS XYLOPHILUS DISEASE AND METHOD FOR CONTROLLING BURSAPHELENCHUS XYLOPHILUS USING SAME” (Industry Foundation of Chonnam National University, priority 2017, dated 2019)

How the values were obtained:
[1] = test system: induced resistance-related genes; test: qRT-PCR expression of induced resistance genes in pine tree callus, overall statement; type: cell-based; settings: 200 µg/mℓ
Description: For in vitro analysis of induced resistance, the expression of PR genes and other plant defense-related genes was determined, which are evolved in various defense mechanisms including induced resistance. The primers of sixteen induced resistance-related genes of pine tree used in this invention were listed in the below and elongation factor_1 alpha were used as a reference gene. [Table 4] The primer list of defense resistance-related genes
After the treatment with 200 µg / mℓ of candidates of the selected induced resistance material, expression of the induced resistance-related gene in pine callus was determined by qRT-PCR using the primer pairs of defense resistance-related genes in Table 4. As a candidate group of an induced resistance material in pine tree, acibenzolar-S-methyl (ASM), TDL (Tiadinil), ITL (Isotianil), PBZ (Probenzole), AZO (Azoxystrobin), VMA (Validamycin A), MeJA (Methyl jasmonate), BABA (DL-3-aminobutyric acid), 2,3-BDO (2,3-Butanediol), GABA (r-Aminobutyric acid), glucan (Glucan), ER (Ergosterol), and AZA (Azelaic acid) were used. For the in vitro analysis of the expression of induced resistance gene in pine callus, the selected induced resistance materials were applied with 500 µℓ of LM liquid medium on a surface of pine tree callus (100 mg) in 12-well microplate to give final concentration of 200 µg/mℓ. Then, the callus surface was sufficiently reacted for 24 hours with the candidate of pine tree induced resistance material by shaking at 50 rpm in a 25 °C shaking incubator under dark condition. RNAs were extracted from the callus after completion of the reaction with an induced resistance material, followed by synthesis of cDNAs. Then, by carrying out qRT-PCR, the expression of induced resistance genes was determined. [Table 5] Expression of induced resistance gene in pine tree callus by TDL, PBZ, ASM, ITL, AZO, VMA, glucan, and AZA

PR_2 family = test: qRT-PCR expression of induced resistance gene in pine tree callus; type: cell-based; settings: concentration series, 2 µg/mℓ
[2] = test system: Bursaphelenchus xylophilus; test: In vitro nematicidal activity, 96-well microplate; settings: after 3 days
Description: To test the nematicidal activity of acibenzolar-S-methyl, a suspension of Bursaphelenchus xylophilus was diluted in a 96-well microplate to have 50 worms/99 µℓ in each well and used for the treatment. […] Each treatment was repeated 3 times, and "A Pharm" (emamectin benzoate, 2.15%), which is a chemical pesticide, was used as a control group. After the treatment, the 96-well plate was kept in a plastic box having water-soaked wipes spread on the bottom to maintain 100% humidity, and, after covering the box with black cloth, the box was stored in a dark state with blockage of light. The observation was made after 3 days. […] [Table 2] Nematicidal activity of acibenzolar-S-methyl against Bursaphelenchus xylophilus

Antipeptide = test: qRT-PCR expression of induced resistance gene in pine tree callus; type: cell-based; settings: concentration series
Xyloglucan = test: as above; type: cell-based; settings: concentration series
[3] = test system: Bursaphelenchus xylophilus; test: Control efficacy against pine wilt disease by trunk injection, foliar spraying or soil drenching, greenhouse, red pine trees; type: in vivo; settings: red pine tree, observed for 80 days
Description: The control efficacy of acibenzolar-S-methyl, which shown to have the highest activity in Example 1, was determined by three different treatment methods, i.e., trunk injection, foliar spraying, and soil drenching. For in vivo pathogenesis test, 2-year old young red pine trees (diameter of 5.5 mm or so, and height of about 35 mm) were used like Example 2.
For the trunk injection, a borehole was created at an angle of 45° by using an electric drill with thickness of 1.5 mm on a pine stem part that is 5 to 10 cm above the soil surface, a tip (200 µℓ) was inserted to the hole, and the working solution of chemicals was injected in an amount of 100 µℓ per pine tree after dissolving acibenzolar-S-methyl at concentration of 0.2 or 10 mg/mℓ in an aqueous solution containing 10% acetone and 10% methanol. After the treatment, the end part of the tip was sealed with parafilm, and a small hole was created thereon as an airflow hole. For the foliar spraying, a pre-treatment with Tween 20 (250 µg/mℓ) was carried out at 5 mℓ per pine tree to help the adsorption of the chemical on pine leaves, followed by drying for 2 hours. After drying, acibenzolar-S-methyl was dissolved at concentration of 1.6 mg/mℓ in an aqueous solution containing 10% acetone and Tween 20 (250 µg/mℓ) and the dissolved solution was filled in microsprayer and was applied 5 mℓ per pine tree by foliar spraying. For the soil drenching, acibenzolar-S-methyl was dissolved at concentration level of 0.2 mg/mℓ in an aqueous solution containing 10% acetone and Tween 20 (250 µg/mℓ), and this solution was used for soil drenching in a pot with planted pine tree, 40 mℓ per pine tree. […] [Table 3] The control efficacy of acibenzolar-S-methyl against pine wilt disease by various treatment methods

PR_1b family = test: qRT-PCR expression of induced resistance gene in pine tree callus; type: cell-based; settings: concentration series
Heat shock 70 = test: as above; type: cell-based; settings: concentration series, 2 µg/mℓ
PR_3 family class 1 = test: as above; type: cell-based; settings: concentration series, 2 µg/mℓ
[4] = Foliar spraying, 1,600 µg/mℓ, 5 mℓ per tree
[5] = Soil drenching, 200 µg/mℓ, 40 mℓ per tree

How did the “expression of induced resistance-related genes is induced overall” value [1] turn out when `OCC1=C[C@@H](N[C@H]2C[C@H](CO)[C@@H](O[C@H]3O[C@@H](CO)[C@H](O)[C@@H](O)[C@@H]3O)[C@H](O)[C@H]2O)[C@H](O)[C@@H](O)[C@@H]1O` [VMA, Validamycin A] was run?
The value was no less than 2 times.

How did the “expression of induced resistance-related genes is induced overall” value [1] turn out when `NCCCC(=O)O` [GABA, r-Aminobutyric acid] was run?
Its value is no less than 2 times.

Which “Gene expression level, PR_2 family” value (PR_2 family) does the source give for `CSC(=O)c1cccc2nnsc12` [ASM, acibenzolar-S-methyl] here?
Its value is 1.828.

What about the “Nematicidal rate (%)” value ([2]; 33.3 µg/mℓ) of the same molecule?
Its value is 1.72%.

What about the “Nematicidal rate (%)” value ([2]; 100 µg/mℓ) of the same molecule?
Its value is 1.94%.

What about the “Nematicidal rate (%)” value ([2]; 300 µg/mℓ) of the same molecule?
Its value is 2.24%.

And the nematicidal activity ([2]; second stage larvae, 300, 100 or 33.3 µg/mℓ)?
Its nematicidal activity is “no nematicidal activity”.

What about the “Gene expression level, Antipeptide” value (Antipeptide; 2 µg/mℓ) of the same molecule?
The value was 5.816.

And the “Gene expression level, Antipeptide” value (Antipeptide; 20 µg/mℓ)?
Its value is 7.111.

And the “Gene expression level, Xyloglucan” value (Xyloglucan; 2 µg/mℓ)?
Its value is 7.013.

What about the “Gene expression level, Xyloglucan” value (Xyloglucan; 20 µg/mℓ) of the same molecule?
The value was 5.389.

And the “Control value (%)” value [3, 4]?
The value was 61%.

What about the “Disease occurrence rate (%)” value [3, 4] of the same molecule?
Its value is 28%.

What about the “Control value (%)” value [3, 5] of the same molecule?
Its value is 97%.

And the “Disease occurrence rate (%)” value [3, 5]?
The value was 2%.

And the “Control value (%)” value ([3]; Trunk injection, 200 µg/mℓ)?
Its value is 77%.

What about the “Disease occurrence rate (%)” value ([3]; Trunk injection, 200 µg/mℓ) of the same molecule?
Its value is 16%.

What about the “Control value (%)” value ([3]; Trunk injection, 10,000 µg/mℓ) of the same molecule?
Its value is 27%.

What about the “Disease occurrence rate (%)” value ([3]; Trunk injection, 10,000 µg/mℓ) of the same molecule?
The value was 52%.

What about the “Gene expression level, PR_1b family” value (PR_1b family; 2 µg/mℓ) of the same molecule?
Its value is 1.064.

What about the “Gene expression level, PR_1b family” value (PR_1b family; 20 µg/mℓ) of the same molecule?
Its value is 1.248.

What about the “Gene expression level, Heat shock 70” value (Heat shock 70) of the same molecule?
The value was 22.47.

What about the “expression of induced resistance-related genes is induced overall” value [1] of the same molecule?
Its value is no less than 2 times.

What about the “expression of most PR genes was enhanced” value [1] of the same molecule?
The value was no less than 2 times.

And the “Gene expression level, PR_3 family class 1” value (PR_3 family class 1)?
The value was 3.945.
